Source: ChEMBL document CHEMBL4507272 (2021)

Columns and labels:
Conditions in all cases: Compound concentration 1000.0 nM
[1] = target: Atypical kinase COQ8A, mitochondrial (Homo sapiens) (UniProt Q8NI60)
[2] = target: Aurora kinase A (Homo sapiens) (UniProt O14965)
[3] = tested on: Tyrosine-protein kinase ABL1 (Homo sapiens), P00519 [E255K]
[4] = tested on: Mast/stem cell growth factor receptor Kit (Homo sapiens), P10721 [V559D,T670I]
[5] = target: Non-receptor tyrosine-protein kinase TNK1 (Homo sapiens) (UniProt Q13470)
[6] = target: Cyclin-dependent kinase 19 (Homo sapiens) (UniProt Q9BWU1)
[7] = tested on: Tyrosine-protein kinase ABL1 (Homo sapiens), P00519 [Q252H]
[8] = target: Myosin light chain kinase 2, skeletal/cardiac muscle (Homo sapiens) (UniProt Q9H1R3)
[9] = target: Ribosomal protein S6 kinase alpha-3 (Homo sapiens) (UniProt P51812)
[10] = target: Myosin light chain kinase family member 4 (Homo sapiens) (UniProt Q86YV6)
[11] = tested on: Tyrosine-protein kinase ABL1 (Homo sapiens), P00519 [H396P]
[12] = target: Mitogen-activated protein kinase 4 (Homo sapiens) (UniProt P31152)
[13] = target: Mitogen-activated protein kinase 9 (Homo sapiens) (UniProt P45984)
[14] = tested on: ALK tyrosine kinase receptor (Homo sapiens), Q9UM73 [C1156Y]
[15] = tested on: Proto-oncogene tyrosine-protein kinase receptor Ret (Homo sapiens), P07949 [V804M]
[16] = tested on: Tyrosine-protein kinase ABL1 (Homo sapiens), P00519 [F317L]
[17] = target: Tyrosine-protein kinase JAK3 (Homo sapiens) (UniProt P52333)

Measured: residual activity

Chain of Non-receptor tyrosine-protein kinase TNK1 (Homo sapiens) (Q13470 whole entry): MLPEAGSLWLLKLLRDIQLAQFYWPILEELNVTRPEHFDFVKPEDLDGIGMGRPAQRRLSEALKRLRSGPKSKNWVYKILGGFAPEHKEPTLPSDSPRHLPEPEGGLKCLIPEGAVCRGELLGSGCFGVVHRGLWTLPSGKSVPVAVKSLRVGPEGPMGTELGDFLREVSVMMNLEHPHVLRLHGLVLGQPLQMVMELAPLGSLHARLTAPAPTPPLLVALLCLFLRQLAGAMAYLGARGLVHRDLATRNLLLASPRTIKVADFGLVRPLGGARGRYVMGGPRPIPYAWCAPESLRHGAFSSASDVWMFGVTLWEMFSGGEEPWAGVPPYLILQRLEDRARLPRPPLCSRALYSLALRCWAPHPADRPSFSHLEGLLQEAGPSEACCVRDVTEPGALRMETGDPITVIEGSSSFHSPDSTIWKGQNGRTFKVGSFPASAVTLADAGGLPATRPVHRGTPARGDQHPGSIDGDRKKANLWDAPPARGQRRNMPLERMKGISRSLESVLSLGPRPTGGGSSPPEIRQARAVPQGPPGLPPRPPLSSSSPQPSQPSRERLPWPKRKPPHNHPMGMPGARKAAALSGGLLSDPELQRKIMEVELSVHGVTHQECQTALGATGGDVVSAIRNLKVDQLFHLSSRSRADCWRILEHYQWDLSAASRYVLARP
Chain of Mast/stem cell growth factor receptor Kit (Homo sapiens), P10721 [V559D,T670I] (P10721 whole entry V559D/T670I): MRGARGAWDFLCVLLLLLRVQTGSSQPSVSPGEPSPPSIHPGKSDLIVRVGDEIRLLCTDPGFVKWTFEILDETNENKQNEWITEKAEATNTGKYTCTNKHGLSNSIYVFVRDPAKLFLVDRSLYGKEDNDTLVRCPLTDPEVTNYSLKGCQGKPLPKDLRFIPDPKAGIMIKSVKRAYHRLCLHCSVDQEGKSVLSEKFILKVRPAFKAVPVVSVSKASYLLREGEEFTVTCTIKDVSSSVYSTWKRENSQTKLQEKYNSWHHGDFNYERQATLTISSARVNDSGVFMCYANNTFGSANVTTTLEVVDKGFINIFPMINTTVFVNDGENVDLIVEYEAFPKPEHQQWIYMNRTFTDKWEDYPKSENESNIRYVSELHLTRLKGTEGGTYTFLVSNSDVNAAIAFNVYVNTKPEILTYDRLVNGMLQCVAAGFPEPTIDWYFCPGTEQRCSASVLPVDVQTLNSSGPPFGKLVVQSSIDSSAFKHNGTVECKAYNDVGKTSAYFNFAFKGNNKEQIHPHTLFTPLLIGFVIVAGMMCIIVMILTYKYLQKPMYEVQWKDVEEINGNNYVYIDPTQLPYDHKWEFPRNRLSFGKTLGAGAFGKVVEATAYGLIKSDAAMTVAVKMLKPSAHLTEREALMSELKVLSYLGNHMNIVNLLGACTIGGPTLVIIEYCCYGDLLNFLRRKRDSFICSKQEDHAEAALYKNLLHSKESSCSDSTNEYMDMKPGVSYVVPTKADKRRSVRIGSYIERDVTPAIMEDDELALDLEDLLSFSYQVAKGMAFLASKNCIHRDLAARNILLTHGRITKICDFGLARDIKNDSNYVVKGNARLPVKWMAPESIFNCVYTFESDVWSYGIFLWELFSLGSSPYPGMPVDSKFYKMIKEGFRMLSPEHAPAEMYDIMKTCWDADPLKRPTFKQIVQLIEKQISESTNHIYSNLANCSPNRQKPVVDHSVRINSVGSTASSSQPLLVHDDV
Chain of ALK tyrosine kinase receptor (Homo sapiens), Q9UM73 [C1156Y] (Q9UM73 whole entry C1156Y, looked up): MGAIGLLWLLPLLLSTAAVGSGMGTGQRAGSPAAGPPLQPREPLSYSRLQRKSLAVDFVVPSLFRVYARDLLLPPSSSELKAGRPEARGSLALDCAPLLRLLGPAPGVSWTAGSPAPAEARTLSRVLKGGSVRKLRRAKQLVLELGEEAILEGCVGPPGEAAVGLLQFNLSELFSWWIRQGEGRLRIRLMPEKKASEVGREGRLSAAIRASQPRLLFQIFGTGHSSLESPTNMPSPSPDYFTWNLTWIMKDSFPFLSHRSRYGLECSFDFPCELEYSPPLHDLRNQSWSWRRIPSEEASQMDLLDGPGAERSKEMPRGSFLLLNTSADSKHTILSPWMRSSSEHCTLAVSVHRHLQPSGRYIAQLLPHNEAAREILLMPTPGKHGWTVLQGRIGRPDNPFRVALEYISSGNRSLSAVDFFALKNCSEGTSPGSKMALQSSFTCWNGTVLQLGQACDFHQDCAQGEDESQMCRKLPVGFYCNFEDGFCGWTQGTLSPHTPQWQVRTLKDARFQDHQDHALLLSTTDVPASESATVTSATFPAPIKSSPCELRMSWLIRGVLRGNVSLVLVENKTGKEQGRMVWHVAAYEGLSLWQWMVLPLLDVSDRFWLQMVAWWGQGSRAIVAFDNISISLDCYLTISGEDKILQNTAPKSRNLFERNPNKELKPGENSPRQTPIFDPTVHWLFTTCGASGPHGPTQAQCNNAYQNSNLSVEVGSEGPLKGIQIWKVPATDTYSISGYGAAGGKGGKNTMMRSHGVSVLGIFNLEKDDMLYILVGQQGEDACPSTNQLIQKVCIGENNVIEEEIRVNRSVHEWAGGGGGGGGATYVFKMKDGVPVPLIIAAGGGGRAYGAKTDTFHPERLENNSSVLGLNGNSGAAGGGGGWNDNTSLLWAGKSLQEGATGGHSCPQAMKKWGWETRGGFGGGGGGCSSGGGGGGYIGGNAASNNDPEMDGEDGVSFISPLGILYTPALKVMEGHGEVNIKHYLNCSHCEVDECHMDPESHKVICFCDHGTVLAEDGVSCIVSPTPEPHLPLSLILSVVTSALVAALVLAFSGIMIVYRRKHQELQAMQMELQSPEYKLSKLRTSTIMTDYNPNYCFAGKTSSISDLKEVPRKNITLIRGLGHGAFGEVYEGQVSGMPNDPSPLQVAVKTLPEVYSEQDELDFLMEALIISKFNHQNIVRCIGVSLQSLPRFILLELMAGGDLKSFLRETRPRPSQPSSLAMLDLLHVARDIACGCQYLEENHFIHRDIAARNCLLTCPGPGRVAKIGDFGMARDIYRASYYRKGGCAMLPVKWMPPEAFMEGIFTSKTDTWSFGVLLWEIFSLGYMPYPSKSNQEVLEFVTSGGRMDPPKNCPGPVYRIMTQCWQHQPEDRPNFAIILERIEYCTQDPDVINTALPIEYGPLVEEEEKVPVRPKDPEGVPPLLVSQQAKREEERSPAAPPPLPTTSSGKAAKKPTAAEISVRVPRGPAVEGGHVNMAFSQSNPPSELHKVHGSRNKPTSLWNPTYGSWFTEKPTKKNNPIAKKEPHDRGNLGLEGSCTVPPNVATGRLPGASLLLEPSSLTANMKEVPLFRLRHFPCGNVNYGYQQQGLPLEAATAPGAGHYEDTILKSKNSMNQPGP
Chain of Atypical kinase COQ8A, mitochondrial (Homo sapiens) (Q8NI60 163-647 limits assumed): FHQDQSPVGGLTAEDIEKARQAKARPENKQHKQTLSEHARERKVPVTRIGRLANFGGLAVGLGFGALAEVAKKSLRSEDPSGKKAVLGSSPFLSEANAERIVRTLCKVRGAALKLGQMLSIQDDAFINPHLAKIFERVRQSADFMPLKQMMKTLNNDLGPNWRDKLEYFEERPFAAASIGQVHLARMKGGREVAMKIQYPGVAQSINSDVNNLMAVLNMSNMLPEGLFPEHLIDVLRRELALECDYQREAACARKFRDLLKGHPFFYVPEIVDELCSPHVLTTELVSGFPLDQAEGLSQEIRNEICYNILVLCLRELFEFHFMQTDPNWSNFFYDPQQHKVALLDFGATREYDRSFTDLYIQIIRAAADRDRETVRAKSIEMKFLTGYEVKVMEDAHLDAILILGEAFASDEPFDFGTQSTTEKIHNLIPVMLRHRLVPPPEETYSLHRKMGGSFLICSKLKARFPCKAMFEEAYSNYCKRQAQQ
Chain of Tyrosine-protein kinase JAK3 (Homo sapiens) (P52333 whole entry): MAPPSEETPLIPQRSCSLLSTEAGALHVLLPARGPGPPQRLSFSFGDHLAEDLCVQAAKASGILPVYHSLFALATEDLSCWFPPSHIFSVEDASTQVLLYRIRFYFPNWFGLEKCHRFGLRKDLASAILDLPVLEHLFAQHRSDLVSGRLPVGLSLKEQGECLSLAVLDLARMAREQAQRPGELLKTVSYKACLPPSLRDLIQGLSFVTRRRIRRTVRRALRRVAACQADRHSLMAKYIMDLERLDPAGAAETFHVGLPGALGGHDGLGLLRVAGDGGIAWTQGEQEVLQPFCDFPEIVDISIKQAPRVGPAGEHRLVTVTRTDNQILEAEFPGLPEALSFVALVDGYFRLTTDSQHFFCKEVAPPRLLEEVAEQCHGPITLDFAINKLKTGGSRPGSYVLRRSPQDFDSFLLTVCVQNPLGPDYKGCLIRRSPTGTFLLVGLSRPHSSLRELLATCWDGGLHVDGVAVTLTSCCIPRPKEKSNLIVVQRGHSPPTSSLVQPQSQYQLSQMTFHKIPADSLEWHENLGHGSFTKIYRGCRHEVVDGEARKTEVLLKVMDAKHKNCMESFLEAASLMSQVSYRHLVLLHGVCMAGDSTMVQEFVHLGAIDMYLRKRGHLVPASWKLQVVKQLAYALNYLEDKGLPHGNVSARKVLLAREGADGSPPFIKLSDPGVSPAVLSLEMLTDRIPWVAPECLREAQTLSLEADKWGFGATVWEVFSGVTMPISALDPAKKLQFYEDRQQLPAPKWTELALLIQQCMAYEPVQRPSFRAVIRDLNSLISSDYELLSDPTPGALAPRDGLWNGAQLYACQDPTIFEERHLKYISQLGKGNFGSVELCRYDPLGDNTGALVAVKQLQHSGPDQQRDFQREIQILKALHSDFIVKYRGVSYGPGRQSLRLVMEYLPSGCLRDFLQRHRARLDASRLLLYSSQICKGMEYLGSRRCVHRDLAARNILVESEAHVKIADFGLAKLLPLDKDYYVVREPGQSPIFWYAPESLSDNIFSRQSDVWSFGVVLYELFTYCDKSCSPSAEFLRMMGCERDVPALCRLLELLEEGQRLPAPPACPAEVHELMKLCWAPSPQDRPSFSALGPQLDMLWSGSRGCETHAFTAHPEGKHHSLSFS

CC(=O)C1=C(C)N(c2cccc(C(F)(F)F)c2)C(=O)N[C@@H]1c1ccc(C#N)nc1 [BAY-678]
inactive: [1] 100% | [2] 83.9% | [3] 75% | [4] 96.7% | [5] 62.1% | [6] 96.9% | [7] 100% | [8] 100% | [9] 100% | [10] 100% | [11] 100% | [12] 100% | [13] 100% | [14] 100% | [15] 100% | [16] 97.1% | [17] 70.5%
